Data: patent publication US9328138B2 (priority 2011, dated 2016)

What was measured:
[1] = target: T1, HCV genotype 1b (BK) NS3 modified enzyme with a R155K mutation (Hepatitis C virus genotype 1b, UniProt P26663, R1181K); assay: HCV NS3 protease time-resolved fluorescence (TRF) assay, genotype 1b R155K; format: biochemical; settings: Ki 1b R155K, genotype 1b (BK) NS3 R155K; single value
T1 construct: HCV genotype 1b (BK) NS3 modified enzyme
Outline: (§1)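 Steps: compound plus NS3/NS4A enzyme for 10 minutes; add peptide substrate to 25 nM; let cleavage proceed 6 hours at room temperature; read product fluorescence (340 nm excitation, 615 nm emission, delayed 400 μs). Enzyme levels gave signal/background 5-20.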

[2] = target: HCV NS3 protease genotype 3a (3A-1) (Hepatitis C virus genotype 3a, UniProt Q81258); assay: HCV NS3 protease time-resolved fluorescence (TRF) assay, genotype 3a; format: biochemical; settings: Ki 3a
Outline: as §1

| SMILES | Ki [1] [nM] | Ki [2] [nM] |
| --- | --- | --- |
| C=CC1C[C@]1(NC(=O)[C@@H]1C[C@@H]2CN1C(=O)[C@H](C1CCCC1)NC(=O)O[C@@H]1CCC[C@H]1CC/C=C/Cc1c(nc3ccccc3c1OCCCN1CCC1)O2)C(=O)NS(=O)(=O)C1(C)CC1 (stereo partly drawn) [Example 85, (3aR,7S,10S,12R,21E,24aS)-19-[3-(azetidin-1-yl)propoxy]-7-cyclopentyl-N-[(1R,2S)-2-ethenyl-1-{[(1-methylcyclopropyl)sulfonyl]carbamoyl}cyclopropyl]-5,8-dioxo-1,2,3,3a,5,6,7,8,11,12,20,23,24,24a-tetra deca hydro-10H-9,12-methanocyclopenta [18,19][1,10,3,6]dioxa-diazacyclononadecino[11,12-b] quinoline-10-carboxamide] | 0.11 | 0.56 |
| C=C[C@@H]1C[C@]1(NC(=O)[C@@H]1C[C@@H]2CN1C(=O)[C@H](C(C)(C)C)NC(=O)O[C@@H]1C[C@H]1CCCCCc1c(nc3ccccc3c1OCCCNCCCCc1ccccc1)O2)C(=O)NS(=O)(=O)C1(C)CC1 [Example 198, (1aR,5S,8S,10R,22aR)-5-tert-butyl-N-[(1R,2S)-2-ethenyl-1-{[(1-methylcyclopropyl)sulfonyl]carbamoyl}cylcopropoyl]-3,6-dioxo-17-{3-[(4-phenylbutyl)amino]propoxy}-1,1a,3,4,5,6,9,10,18,19,20,21,22,22a-tetra decahydro-8H-7,10-methanocyclopropa[18,19][1,10,3,6] dioxadiazacyclononadecino[11,12-b] quinoline-8-carboxamide] | 0.05 | 0.77 |
| C=C[C@@H]1C[C@]1(NC(=O)[C@@H]1C[C@@H]2CN1C(=O)[C@H](C1CCCC1)NC(=O)O[C@@H]1CCC[C@H]1CC/C=C/Cc1c(nc3ccccc3c1OCCCOC(=O)CN(C)C)O2)C(=O)NS(=O)(=O)C1CC1 [Example 74] | 0.1 | 1.3 |
| COc1c2c(nc3ccccc13)O[C@@H]1C[C@H]3C(=O)N[C@]4(C(=O)NS(=O)(=O)C5(C)CC5)C[C@H]4/C=C\CCCCC[C@H](NC(=O)O[C@@H]4C[C@H]4CCCCC2)C(=O)N3C1 [Example 305, (1aR,5S,11Z,12aS,13aR,16S,19R,31aR)-26-methoxy-N-[(1-methylcyclopropyl)sulfonyl]-3,15,33-trioxo-1,1a,3,4,5,6,7,8,9,10,12a,13,15,16,18,19,27,28,29,30,31,31a-docosahydro-5,17:16,19-dimethanodicyclopropa[12,13:28,29][1,20,3,14,17]dioxatriazacyclononacosino[21,22-b]quinoline-13a(14H)-carboxamide] | 0.066 | 2 |
| C=C[C@@H]1C[C@]1(NC(=O)[C@@H]1C[C@@H]2CN1C(=O)[C@H](C(C)C)NC(=O)O[C@@H]1C[C@H]1CCCCCc1c(nc3ccccc3c1OCCN1CCOCC1)O2)C(=O)NS(=O)(=O)C1(C)CC1 [Example 124, (1aR,5S,8S,10R,22aR)-N-[(1R,2S)-2-ethenyl-1-{[(1-methylcyclopropyl)sulfonyl]carbamoyl}cyclopropyl]-17-[2-(morpholin-4-yl)ethoxy]-3,6-dioxo-5-(propan-2-yl)-1,1a,3,4,5,6,9,10,18,19,20,21,22,22a-tetradeca hydro-8H-7,10-methano cyclopropa[18,19][1,10,3,6] dioxadiazacyclonona decino[11,12-b]quinoline-8-carboxamide] | 0.79 | 10 |
| C=C[C@@H]1C[C@]1(NC(=O)[C@@H]1C[C@@H]2CN1C(=O)[C@H](C(C)(C)C)NC(=O)O[C@@H]1C[C@H]1CCCCCc1c(nc3ccccc3c1OCCN1CCCC1)O2)C(=O)NS(=O)(=O)C1(C)CC1 [Example 135] | 0.2 | 1.8 |
| C=C[C@@H]1C[C@]1(NC(=O)[C@@H]1C[C@@H]2CN1C(=O)[C@H](C(C)(C)C)NC(=O)O[C@@H]1C[C@H]1CCCCCc1c(nc3ccccc3c1OCCCN(C)Cc1nc3cc(C)ccc3[nH]1)O2)C(=O)NS(=O)(=O)C1(C)CC1 [Example 191, (1aR,5S,8S,10R,22aR)-5-tert-butyl-N-[(1R,2S)-2-ethenyl-1-{[(1-methylcyclopropyl)sulfonyl]carbamoyl}cyclopropyl]-17-(3-{methyl[(5-methyl-1H-benzimidazol-2-yl)methyl]amino}propoxy)-3,6-dioxo-1,1a,3,4,5,6,9,10,18,19, 20,21,22,22a-tetradecahydro-8H-7,10-methano cyclopropa[18,19][1,10,3,6] dioxadiazacyclononadecino[11,12-b] quinoline-8-carboxamide] | 0.16 | 1.5 |
| C=C[C@@H]1C[C@]1(NC(=O)[C@@H]1C[C@@H]2CN1C(=O)[C@H](C(C)(C)C)NC(=O)O[C@@H]1C[C@H]1CCCCCc1c(nc3ccccc3c1OCC1CN(C)CCN1C)O2)C(=O)NS(=O)(=O)C1(C)CC1 (stereo partly drawn) [Example 140, (1ar,5S,8S,10R,22aR)-5-tert-butyl-17-[(1,4-dimethylpiperazin-2-yl)methoxy]-N-[(1R,2S)-2-ethenyl-1-{[(1-methylcyclopropyl)sulfonyl]carbamoyl}cyclopropyl]-3,6-dioxo-1,1a,3,4,5,6,9,10,18,19,20,21,22,22a-tetradecahydro-8H-7,10-methanocyclopropa[18,19][1,10,3,6] dioxadiazacyclononadecino [11,12-b]quinoline-8-carboxamide] | 0.26 | 3 |
| C=C[C@@H]1C[C@]1(NC(=O)[C@@H]1C[C@@H]2CN1C(=O)[C@H](C(C)(C)C)NC(=O)O[C@@H]1C[C@H]1CCCCCc1c(nc3ccccc3c1OCCCN1CC3CCC1C3)O2)C(=O)NS(=O)(=O)C1(C)CC1 [Example 196, (1aR,5S,8S,10R,22aR)-17-[3-(2-azabicyclo[2.2.1]hept-2-yl)propxy]-5-tert-butyl-N-[(1R,2S)-2-ethenyl-1-{[(1-methylcyclopropyl)sulfonyl]carbamoyl}cyclopropyl]-3,6-dioxo-1,1a, 3,4,5,7,9,10,18,19,20,21,22,22a-tetradecahydro-8H-7,10-methanocyclopropa[18,19][1,10,3,6] dioxadiazacyclononadecino[11,12-b] quinoline-8-carboxamide] | 0.1 | 0.85 |
| C=C[C@@H]1C[C@]1(NC(=O)[C@@H]1C[C@@H]2CN1C(=O)[C@H](C(C)(C)C)NC(=O)O[C@@H]1C[C@H]1CCCCCc1c(nc3ccccc3c1OCCc1ccccn1)O2)C(=O)NS(=O)(=O)C1(C)CC1 [Example 217, (1aR,5S,8S,10R,22aR)-5-tert-butyl-N-[(1R,2S)-2-ethenyl-1-{[(1-methylcyclopropyl)sulfonyl]carbamoyl}cyclopropyl]-3,6-dioxo-17-[2-(pyridin-2-yl)ethoxy]-1,1a,3,4,5,6,9,10,18,19,20,21,22,22a-tetradecahydro-8H-7,10-methanocyclopropa[18,19][1,10,3,6] dioxadiazacyclononadecino[11,12-b]quinoline-8-carboxamide] | 0.27 | 7.1 |
| C=C[C@@H]1C[C@]1(NC(=O)[C@@H]1C[C@@H]2CN1C(=O)[C@H](C(C)(C)C)NC(=O)O[C@@H]1CCC[C@H]1CCCCCc1c(nc3ccccc3c1OCCCN1CCOCC1)O2)C(=O)NS(=O)(=O)C1(COC)CC1 [Example 64, (3aR,7S,10S,12R, 24aR)-7-tert-butyl-N-[(1R,2S)-2-ethenyl-1-({[1-(methoxymethyl)cyclopropyl]sulfonyl}carbamoyl)cyclopropyl]-19-[3-(morpholin-4-yl)propoxy]-5,8-dioxo-1,2,3,3a,5,6,7,8, 11,12,20,21,22,23,24, 24a-hexadecahydro-10H-9,12-methanycyclopenta [18,19][1,10,3,6] dioxadiazacyclo-nonadecino [11,12-b]quinoline-10-carboxamide] | 0.43 | 5.5 |
| C=C[C@@H]1C[C@]1(NC(=O)[C@@H]1C[C@@H]2CN1C(=O)[C@H](C(C)(C)C)NC(=O)O[C@@H]1C[C@H]1CCCCCc1c(nc3ccccc3c1OCCCN(C)C)O2)C(=O)NS(=O)(=O)C1(C)CC1 [Example 114, (1aR,5S,8S,10R,22aR)-5-tert-butyl-17-[3-(dimethylamino)propoxy]-N-[(1R,2S)-2-ethenyl-1-{[(1-methylcyclopropyl)sulfonyl]carbamoyl}cyclopropyl]-3,6-dioxo-1,1a,3,4,5,6,9,10,18,19,20,21,22,22a-tetradecahydro-8H-7,10-methanocyclo propa[18,19][1,10,3,6]dioxadiazacyclo-nonadecino[11,12-b] quinoline-8-carboxamide] | 0.051 | 0.25 |
| C=C[C@@H]1C[C@]1(NC(=O)[C@@H]1C[C@@H]2CN1C(=O)[C@H](C(C)(C)C)NC(=O)O[C@@H]1CCC[C@H]1CC/C=C/Cc1c(nc3ccccc3c1OCCCOCCOC)O2)C(=O)NS(=O)(=O)C1(C)CC1 [Example 56, (3aR,7S,10S,12R,21E,24aS)-7-tert-butyl-N-[(1R,2S)-2-ethenyl-1-{[(1-methylcyclopropyl)sulfonyl]carbamoyl}cyclopropyl]-19-[3-(2-methoxyethoxy)propoxy]-5,8-dioxo-1,2,3,3a,5,6,7,8,11,12,20,23,24,24a-tetradecahydro-10H-9,12-methanocyclopenta[18,19][1,10,3,6]dioxadiazacyclononadecino[11,12-b] quinoline-10-carboxamide] | 0.09 | 0.95 |
| C=C[C@@H]1C[C@]1(NC(=O)[C@@H]1C[C@@H]2CN1C(=O)[C@H](C(C)(C)C)NC(=O)O[C@@H]1C[C@H]1CCCCCc1c(nc3c(OC)cccc3c1OCCCN1CC3(COC3)C1)O2)C(=O)NS(=O)(=O)C1(C)CC1 [Example 153, (1aR,5S,8S,10R,22aR)-5-tert-butyl-N-[(1R,2S)-2-ethenyl-1-{[(1-methylcyclopropyl)sulfonyl]carbamoyl}cyclopropyl]-13-methoxy-17-[3-(2-oxa-6-azaspiro[3.3]hept-6-yl)propoxy]-3,6-dioxo-1,1a, 3,4,5,6,9,10,18,19,20,21,22,22a-tetradeca hydro-8H-7,10-methanocyclopropa[18,19][1,10,3,6] dioxadiazacyclononadecino [11,12-b]quinoline-8-carboxamide] | 0.059 | 0.61 |
